Here are results for five molecules from US5663177A (SmithKline Beecham Corporation, priority 1995, dated 1997).

For data set [1] the following is noted: background statement; cited from earlier work.
For data set [2] the following is noted: background statement; cited from earlier work. This is another data set of the same source.
Data set [3] has as its system wild-type (AUX-B 1) Chinese Hamster ovary cells. Briefly: CHO Microtiter Cytotoxicity Assay (XTT), wild-type (AUX-B1). Conditions: Cricetulus griseus, AuxB1, 72 h, 3 days, read-out: Cytotoxicity IC50, Wildtype (AUX-B1). Type of data set: cell-based. The protocol: (§1) The in vitro assays used to test the compound of the present invention for antitumor activity are well-known. A generalized description of these assays follows.
(§2) Chinese Hamster ovary cells are grown in Alpha MEM Medium with L-glutamine and nucleosides and containing 10% fetal bovine serum and 100 units per mL penicillin-streptomycin in 75 cm^2 canted neck tissue culture flasks. They are harvested from these flasks using 0.5% trypsin. Microtiter plates (96-well, sterile, flat bottom) (Corning 25860) are seeded with 1.6×10^3 wild-type (AUX-B 1) Chinese Hamster ovary cells per well or 2×10^3 multidrug resistant (CH^R C5) Chinese Hamster ovary cells per well. The plates are incubated at 37° C., 5% CO2 overnight to allow the cells to attach. The outside wells of each plate are not used, due to evaporation during the incubation time. They are filled with medium and used as blanks. The next day, the medium is aspirated from the wells and 180 μL of fresh medium is added to each well. Compounds are diluted from stock solution in DMSO into fresh medium to a 10X concentration containing 2% DMSO. Twenty μL of this is then added to the 180 μL, of fresh medium in the wells. The plates are then incubated for another 3 days at 37° C., 5% CO2. Eight mg of XTT (SIGMA X-4251) is dissolved in 100 μL of DMSO which is then added to 3.9 mL of phosphate buffered saline without cations (PBS). Phenazine methosulfate (SIGMA P-9625) is dissolved in PBS to a concentration of 3 mg/mL and 20 μL of this is added to the XTT solution. Fifty μL of this XTT/PMS solution is added to each well of the microliter plate and the plates are incubated for 90 minutes at 37° C., 5% CO2 (until the OD450 ~1.0). The plate is then read on a UV Max plate reader, using wells without cells (i.e., containing only 200 μL of medium and 50 μL of XTT/PMS solution) as a background control.
(Tetrazolium assays rely on reduction of a dye to a coloured formazan, in cell work by metabolically active cells.)

The subject of data set [4] is multidrug resistant (CH^R C5) Chinese Hamster ovary cells. Briefly: CHO Microtiter Cytotoxicity Assay (XTT), multidrug resistant (CH^R C5). Type of data set: cell-based. Conditions: Cricetulus griseus, CHRC5, 72 h, 3 days. The protocol:
as §1, §2

The subject of data set [5] is P388. Briefly: Cytotoxicity IC50, P388. Format: cell-based. Conditions: Mus musculus.
Data set [6] relates to topoisomerase II. Conditions: background statement; cited from earlier work.
The test system of data set [7] is topoisomerase I. To be noted: background statement; cited from earlier work.
In data set [8] the test system is P388. Briefly: Efficacy in mouse tumor model P388 (in vivo). The protocol: The cytotoxicity and efficacy of the compound of the present invention was also tested in vivo using the well-known P388 mouse tumor model.
Data set [9] deals with solid tumor cancers, particularly ovarian cancer and non-small cell lung carcinoma. To be noted: humans; cited from earlier work.

Broadly, the IC50 is the concentration at which inhibition is half-maximal.

Each structure is given as a SMILES string.

For the molecule `CC[C@@]1(O)C(=O)OCc2c1cc1n(c2=O)Cc2cc3c(N)cccc3nc2-1` [9-aminocamptothecin, (S)-10-amino-4-ethyl-4-hydroxy-1H-pyrano[3',4':6,7]indolizino[1,2-b]quinoline-3, 14(4H,12H)-dione], the water solubility result in data set [1] is reported as “limited water solubility”.

For the molecule `CCc1c2c(nc3ccc(OC(=O)N4CCC(N5CCCCC5)CC4)cc13)-c1cc3c(c(=O)n1C2)COC(=O)[C@]3(O)CC` [CPT-11, (S)-[1,4'-bipiperidine]-1'-carboxylic acid,4,11-diethyl-3,4,12,14-tetrahydro-4-hydroxy-3, 14-dioxo-1H-pyrano[3',4':6,7]indolizino[1,2-b]quinolin-9-yl], the toxicity result in data set [2] is listed as “adverse toxicity profile”.

For the molecule `CC[C@@]1(O)C(=O)OCc2c1cc1n(c2=O)Cc2cc3ccccc3nc2-1` [Camptothecin], in [1], the water solubility result is reported as “water-insoluble”. Also, the IC50 in data set [3] is 0.015 µM; in data set [4], 0.035 µM; in data set [5], 0.012 µM. For the same molecule, the “effect on topoisomerase II” value in data set [6] was “no effect on topoisomerase II”. Besides, in data set [7], the “inhibition of topoisomerase I” value is on record as “known to inhibit topoisomerase I”.

As for `CC[C@@]1(O)C(=O)OCc2c1cc1n(c2=O)Cc2c-1nc1ccc(O)c3c1c2CN(C)C3` [Formula I, S-9-ethyl-2,3-dihydro-4,9-dihydroxy-2-methyl-1H,12H-benzo[ij]pyrano[3', 4':6,7]indolizino[1,2-c][2,6]naphthyridine-10,13(H,15H)-dione], the IC50 in data set [3] was 0.052 µM; in data set [4] it was 0.84 µM; in data set [5], 0.024 µM. Also, the “Efficacy in Mouse Tumor Models, % Inc. in Lifespan, P388” value in data set [8] (dose 40 mg/kg ip) was determined as 111%. Moreover, the “biological activity (cytotoxicity and efficacy in mouse tumor models) versus topotecan” value in [8] (summary of Table I) is listed as “comparable to topotecan”.

`CC[C@@]1(O)C(=O)OCc2c1cc1n(c2=O)Cc2cc3c(CN(C)C)c(O)ccc3nc2-1` [Topotecan, 9-dimethylaminomethyl-10-hydroxycamptothecin]: the IC50 in data set [3] stood at 0.79 µM; in [4] it was 2.3 µM; in [5], 0.03 µM. In addition, the “Efficacy in Mouse Tumor Models, % Inc. in Lifespan, P388” value in data set [8] (dose 14.4 mg/kg, route not given) is recorded as 156%. Besides, the “efficacy in clinical tests” value in data set [9] was “demonstrated efficacy against several solid tumor cancers, particularly ovarian cancer and non-small cell lung carcinoma in humans”.
